Data as given in patent publication US20260317314A1, “NITROGEN-CONTAINING HETEROCYCLIC COMPOUND AND USE THEREOF” (JIANGSU DEYUAN PHARMACEUTICAL CO.,LTD., priority 2023, published 2026).

What was measured:
human CYP11B2 = biological target: T1, human CYP11B2 (Homo sapiens, UniProt P19099); experiment: In vitro activity assay of monoclonal cells overexpressing human CYP11B2; format: cell-based; settings: G402 cells overexpressing human CYP11B2; substrate 11-deoxycorticosterone; 16 hours; aldosterone by LCMS/MS
T1 construct: expressed in transfected cells; host or cells: human renal leiomyoma G402 cell line (monoclonal cells overexpressing human CYP11B2)
T1 sequence (P19099 25-503): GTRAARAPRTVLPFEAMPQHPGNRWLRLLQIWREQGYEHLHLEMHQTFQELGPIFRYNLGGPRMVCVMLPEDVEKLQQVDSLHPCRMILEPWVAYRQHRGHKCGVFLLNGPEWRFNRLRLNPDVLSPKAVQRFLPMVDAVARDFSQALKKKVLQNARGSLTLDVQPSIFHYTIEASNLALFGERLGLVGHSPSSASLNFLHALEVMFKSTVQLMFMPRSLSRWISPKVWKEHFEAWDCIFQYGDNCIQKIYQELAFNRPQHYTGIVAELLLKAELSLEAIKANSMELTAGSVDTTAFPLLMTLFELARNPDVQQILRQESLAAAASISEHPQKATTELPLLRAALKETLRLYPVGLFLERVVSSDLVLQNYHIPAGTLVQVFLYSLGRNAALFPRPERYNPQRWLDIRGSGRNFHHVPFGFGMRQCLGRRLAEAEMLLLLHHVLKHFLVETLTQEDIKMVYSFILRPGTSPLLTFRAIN
Procedure: The human renal leiomyoma G402 cell line overexpressing human CYP11B2 was selected to serve as a compound activity screening system.
• 2) Compound details: The test compound was prepared as a 10 μM working concentration using DMSO.
Day 1: Cells were digested, and human renal leiomyoma G402 cells overexpressing human CYP11B2 were resuspended to 1×10^5 cells/mL, with 100 μL seeded into a 96-well plate.
Day 2: The medium was replaced with DMEM/F12 containing 2.5% charcoal-stripped fetal bovine serum; test compounds were added: 5 μL of test compound was added to the cell culture medium to achieve final concentrations of 10000, 2500, 625, 156.25, 39.06, 9.77, 2.44, 0.61, 0.15, and 0 nM (with a DMSO content of 0.1%).
After one hour, the substrate was added: 30 mM 11-deoxycorticosterone was diluted 1500-fold with culture medium, and 5 μL was dispensed per well to achieve a final concentration of […], followed by incubation for 16 hours.
(§1) Day 3: The cell supernatant was collected and added to 200 μL of a methanol solution containing internal standards (internal standards: 35 ng/mL ketoprofen or 7.5 ng/mL carbamazepine or 5 ng/mL diphenhydramine or 10 ng/mL tolbutamide). The mixture was vortexed and centrifuged (4000×g, 4° C., 5 minutes). Then, 100 μL of the supernatant was taken and mixed with 100 μL of pure water. The mixture was centrifuged (4000 g, 4° C., 15 min), and the supernatant was analyzed by ESI-LCMS/MS. • 4) Data analysis:
Ratio=Aldosterone peak area/Internal standard peak area
Control activity %=(Ratio test compound/Ratio DMSO)×100%
“Ratio test compound” represents the Ratio values at different concentrations of the test compound.
“Ratio DMSO” represents the Ratio value without the addition of the test compound. • X=Log (compound concentration) • Y=Control activity %
(§2) The IC50 of the test compound was determined by fitting to a nonlinear regression equation using XLfit 5.5.0.

[1] = Plasma protein binding rate test, cynomolgus monkey (equilibrium dialysis); format: in vitro ADME; settings: 37° C., read-out: Plasma protein binding rate (%) in cynomolgus monkeys (converted)
Text: The sample was thoroughly mixed.

human CYP11B1 = biological target: T2, human CYP11B1 (Homo sapiens, UniProt P15538); experiment: In vitro activity assay of monoclonal cells overexpressing human CYP11B1; format: cell-based; settings: G402 cells overexpressing human CYP11B1; substrate 11-deoxycortisol 1 μM; 16 hours
T2 construct: expressed in transfected cells; host or cells: human renal leiomyoma G402 cell line (monoclonal cells overexpressing human CYP11B1)
T2 sequence (P15538 25-503): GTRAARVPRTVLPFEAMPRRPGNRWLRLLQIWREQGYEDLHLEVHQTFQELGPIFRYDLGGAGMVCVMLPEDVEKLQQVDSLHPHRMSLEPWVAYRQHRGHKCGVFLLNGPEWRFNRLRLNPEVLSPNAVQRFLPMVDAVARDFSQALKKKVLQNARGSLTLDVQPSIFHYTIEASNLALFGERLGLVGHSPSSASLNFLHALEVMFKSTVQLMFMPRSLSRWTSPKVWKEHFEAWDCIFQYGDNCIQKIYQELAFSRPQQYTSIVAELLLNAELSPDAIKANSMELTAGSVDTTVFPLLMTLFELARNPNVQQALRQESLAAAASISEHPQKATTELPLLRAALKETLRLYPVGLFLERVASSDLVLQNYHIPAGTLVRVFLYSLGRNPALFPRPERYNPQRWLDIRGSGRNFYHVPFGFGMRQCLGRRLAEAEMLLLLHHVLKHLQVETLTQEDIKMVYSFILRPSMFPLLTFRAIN
Procedure: The human renal leiomyoma G402 cell line overexpressing human CYP11B1 was selected to serve as a compound selectivity screening system. Details are as follows: • 1) The cells, reagents, and instrument information were consistent with Experimental Example 1 (activity of monoclonal cells overexpressing human CYP11B2). • 2) Compound details: The test compound was prepared as a […] working concentration using DMSO. • 3) Experimental procedure
Day 1: Cells were digested, and human renal leiomyoma G402 cells overexpressing CYP11B1 were resuspended to 1×10^5 cells/mL, with […] seeded into a 96-well plate.
Day 2: The medium was replaced with DMEM/F12 containing 2.5% charcoal-stripped fetal bovine serum.
After one hour, the substrate was added: 30 mM 11-deoxycortisol was diluted 1500-fold with culture medium, and 5 μL was dispensed per well to achieve a final concentration of 1 μM, followed by incubation for 16 hours.
as §1, with “The mixture was vortexed and centrifuged (4000×g, 4° C., 5 minutes). Then, 100 μL of the supernatant was taken and mixed with 100 μL of pure water.” left out, “analysis: […]” for “analysis:”
as §2

IC50 (human CYP11B2): 14.2 nM
fraction unbound at 4 h [1]: 0.451
IC50 (human CYP11B1): 3.47 µM
Structure (SMILES): CCC(=O)N[C@H]1CCOc2c(-c3ccc4c(c3)CCC(=O)N4C)cncc21 (single isomer, unassigned) [Compound 037]
